What all share (assay type): functional
Experiment [1] concerns Escherichia coli. Kind of experiment: Antibacterial activity against Escherichia coli assessed as bacterial growth inhibition.
The test system of experiment [2] is Pseudomonas aeruginosa. The experiment is described as follows: Antibacterial activity against Pseudomonas aeruginosa assessed as bacterial growth inhibition.
The subject of the next experiment is Klebsiella pneumoniae. Kind of experiment: Antibacterial activity against Klebsiella pneumoniae ATCC 29665 assessed as bacterial growth inhibition incubated for 18 to 20 hrs by broth microdilution method. The settings on record: time 18-20 hrs.
Experiment [3] relates to Staphylococcus aureus. Kind of experiment: Antibacterial activity against Staphylococcus aureus ATCC 25923 assessed as bacterial growth inhibition incubated for 18 to 20 hrs by broth microdilution method. To be noted: time 18-20 hrs. Background: Dilution methods test growth across graded concentrations, often in twofold steps.
For experiment [4], the system named is Pseudomonas aeruginosa. The experiment is described as follows: Antibacterial activity against Pseudomonas aeruginosa ATCC 27853 assessed as bacterial growth inhibition incubated for 18 to 20 hrs by broth microdilution method. To be noted: time 18-20 hrs.
The next experiment concerns Acinetobacter baumannii. Kind of experiment: Antibacterial activity against Acinetobacter baumannii ATCC 19606 assessed as bacterial growth inhibition incubated for 18 to 20 hrs by broth microdilution method. The settings on record: time 18-20 hrs.
The test system of experiment [5] is Escherichia coli. Kind of experiment: Antibacterial activity against Escherichia coli ATCC 25922 assessed as bacterial growth inhibition incubated for 18 to 20 hrs by broth microdilution method. The settings on record: time 18-20 hrs.
Experiment [6] has as its system Staphylococcus aureus. The experiment is described as follows: Antibacterial activity against methicillin-resistant Staphylococcus aureus clinical isolate 1 assessed as bacterial growth inhibition incubated for 8 hrs by CLSI based broth microdilution method.
Experiment [7] deals with Staphylococcus aureus. The experiment is described as follows: Antibacterial activity against methicillin-resistant Staphylococcus aureus clinical isolate 2 assessed as bacterial growth inhibition incubated for 8 hrs by CLSI based broth microdilution method.
Experiment [8] has as its system Staphylococcus aureus. Kind of experiment: Antibacterial activity against Staphylococcus aureus assessed as bacterial growth inhibition by serial dilution method.
The next experiment relates to Bacillus subtilis. The experiment is described as follows: Antibacterial activity against Bacillus subtilis assessed as bacterial growth inhibition by serial dilution method.
Experiment [9] has as its system Staphylococcus epidermidis. The experiment is described as follows: Antibacterial activity against Staphylococcus epidermidis assessed as bacterial growth inhibition by serial dilution method.
Experiment [10] deals with Pseudomonas aeruginosa. The experiment is described as follows: Antibacterial activity against Pseudomonas aeruginosa assessed as bacterial growth inhibition by serial dilution method.
For experiment [11], the system named is Escherichia coli. The experiment is described as follows: Antibacterial activity against Escherichia coli assessed as bacterial growth inhibition by serial dilution method.

In brackets after ≈: the same amount, converted by molar mass.

One may read the MIC as the least concentration at which growth counts as inhibited.

Consider `O=C(/C=C/c1ccc(OCc2cn(Cc3ccc(Br)cc3)nn2)cc1)c1ccc(Br)cc1`, for which the MIC with Escherichia coli [1] and in the experiment on Pseudomonas aeruginosa [2] was 6.25 µg/mL (≈ 11.3 µM) each time.

For `O=C(/C=C/c1ccc(OCc2cn(Cc3ccccc3Br)nn2)cc1)c1ccc(Br)cc1`, the MIC with Escherichia coli [1] and in the experiment with Pseudomonas aeruginosa [2] was 6.25 µg/mL (≈ 11.3 µM) throughout.

Take `O=C(/C=C/c1ccc(OCc2cn(Cc3cccc(Br)c3)nn2)cc1)c1ccc([N+](=O)[O-])cc1`: the MIC in the experiment with Escherichia coli [1] and in the experiment on Pseudomonas aeruginosa [2] was 6.25 µg/mL (≈ 12 µM) each time.

`O=C(/C=C/c1ccc(OCc2cn(Cc3ccc(Br)cc3)nn2)cc1)c1ccc([N+](=O)[O-])cc1`: the MIC in the experiment with Escherichia coli [1] and in the experiment on Pseudomonas aeruginosa [2] was 6.25 µg/mL (≈ 12 µM) throughout.

Take `O=C(Cn1cc(CN2CCN(c3cc4c(cc3F)c(=O)c(C(=O)O)cn4C3CC3)CC2)nn1)N[C@@H](Cc1ccccc1)C(=O)O`: the MIC in the experiment with Klebsiella pneumoniae, with Staphylococcus aureus [3], with Pseudomonas aeruginosa [4], in the experiment on Acinetobacter baumannii and in the experiment on Escherichia coli [5] was 0.25 µg/mL (≈ 0.405 µM) in each case.

Regarding `Cc1cc(O)c(C(=O)/C=C/c2ccc(OCc3cn(Cc4ccc(Br)cc4)nn3)cc2)c(=O)o1`, the MIC in the experiment on Escherichia coli [1] and with Pseudomonas aeruginosa [2] was 1.56 µg/mL (≈ 2.99 µM) throughout.

With `CC(C)C[C@H](C(=O)N[C@@H]1Cc2ccc(c(Cl)c2)Oc2cc3cc(c2O[C@@H]2O[C@H](CO)[C@@H](O)[C@H](O)[C@H]2O[C@H]2C[C@](C)(NCCCCCCCc4ccccc4)[C@H](O)[C@H](C)O2)Oc2ccc(cc2Cl)[C@@H](O)[C@@H]2NC(=O)[C@H](NC(=O)[C@@H]3NC(=O)[C@H](CC(=O)O)NC1=O)c1ccc(O)c(c1)-c1c(O)cc(O)cc1[C@H](C(=O)O)NC2=O)n1cc(COCCOCCOCc2cn([C@H](CC(C)C)C(=O)N[C@@H]3Cc4ccc(c(Cl)c4)Oc4cc5cc(c4O[C@@H]4O[C@H](CO)[C@@H](O)[C@H](O)[C@H]4O[C@H]4C[C@](C)(NCCCCCCCc6ccccc6)[C@H](O)[C@H](C)O4)Oc4ccc(cc4Cl)[C@@H](O)[C@@H]4NC(=O)[C@H](NC(=O)[C@@H]5NC(=O)[C@H](CC(=O)O)NC3=O)c3ccc(O)c(c3)-c3c(O)cc(O)cc3[C@H](C(=O)O)NC4=O)nn2)nn1`, the MIC in the experiment with Staphylococcus aureus [6] and with Staphylococcus aureus [7] was 6.25 µg/mL (≈ 1.83 µM) in each case.

For `C#CCOCCOCCOCc1cn([C@H](CC(C)C)C(=O)N[C@@H]2Cc3ccc(c(Cl)c3)Oc3cc4cc(c3O[C@@H]3O[C@H](CO)[C@@H](O)[C@H](O)[C@H]3O[C@H]3C[C@](C)(NCCCCCCCc5ccccc5)[C@H](O)[C@H](C)O3)Oc3ccc(cc3Cl)[C@@H](O)[C@@H]3NC(=O)[C@H](NC(=O)[C@@H]4NC(=O)[C@H](CC(=O)O)NC2=O)c2ccc(O)c(c2)-c2c(O)cc(O)cc2[C@H](C(=O)O)NC3=O)nn1`, the MIC in the experiment on Staphylococcus aureus [6] was found to be 25 µg/mL (≈ 13.9 µM); with Staphylococcus aureus [7] it was 12.5 µg/mL (≈ 6.93 µM).

Regarding `CC(C)C[C@H](C(=O)N[C@@H]1Cc2ccc(c(Cl)c2)Oc2cc3cc(c2O[C@@H]2O[C@H](CO)[C@@H](O)[C@H](O)[C@H]2O[C@H]2C[C@](C)(NCCCCCCCc4ccccc4)[C@H](O)[C@H](C)O2)Oc2ccc(cc2Cl)[C@@H](O)[C@@H]2NC(=O)[C@H](NC(=O)[C@@H]3NC(=O)[C@H](CC(=O)O)NC1=O)c1ccc(O)c(c1)-c1c(O)cc(O)cc1[C@H](C(=O)O)NC2=O)n1cc(COCCCCCCOCc2cn([C@H](CC(C)C)C(=O)N[C@@H]3Cc4ccc(c(Cl)c4)Oc4cc5cc(c4O[C@@H]4O[C@H](CO)[C@@H](O)[C@H](O)[C@H]4O[C@H]4C[C@](C)(NCCCCCCCc6ccccc6)[C@H](O)[C@H](C)O4)Oc4ccc(cc4Cl)[C@@H](O)[C@@H]4NC(=O)[C@H](NC(=O)[C@@H]5NC(=O)[C@H](CC(=O)O)NC3=O)c3ccc(O)c(c3)-c3c(O)cc(O)cc3[C@H](C(=O)O)NC4=O)nn2)nn1`, the minimum inhibitory concentration (MIC) with Staphylococcus aureus [6] and with Staphylococcus aureus [7] was 6.25 µg/mL (≈ 1.82 µM) each time.

As to `NC(=O)N/N=C/c1ccccc1OCc1cn(-c2ccc(Br)cc2)nn1`, the MIC (in the experiment with Staphylococcus aureus [8]; in the experiment with Bacillus subtilis; in experiment [9]; in the experiment with Pseudomonas aeruginosa [10]; in the experiment on Escherichia coli [11]) was 25 µg/mL (≈ 60.2 µM) throughout.

For `COc1ccc(-n2cc(COc3ccccc3/C=N/NC(N)=O)nn2)cc1`, the MIC (in the experiment on Staphylococcus aureus [8]; with Bacillus subtilis; in [9]; in the experiment with Pseudomonas aeruginosa [10]; with Escherichia coli [11]) was 25 µg/mL (≈ 68.2 µM) throughout.

Take `NC(=S)N/N=C/c1ccc(OCc2cn(Cc3ccc(Br)cc3)nn2)cc1`: the MIC (in the experiment with Staphylococcus aureus [8]; in the experiment with Bacillus subtilis; in [9]; with Pseudomonas aeruginosa [10]; in the experiment on Escherichia coli [11]) was 6.25 µg/mL (≈ 14 µM) in each case.

Turning to `COc1ccc(C[C@H](NC(=O)Cn2cc(CN3CCN(c4cc5c(cc4F)c(=O)c(C(=O)O)cn5C4CC4)CC3)nn2)C(=O)O)cc1OC`, the MIC in the experiment with Klebsiella pneumoniae, in the experiment with Staphylococcus aureus [3], with Pseudomonas aeruginosa [4], with Acinetobacter baumannii and in the experiment on Escherichia coli [5] was 0.25 µg/mL (≈ 0.369 µM) in each case.

Turning to `COc1ccc(Cn2cc(COc3ccc(/C=C/C(=O)c4c(O)cc(C)oc4=O)cc3)nn2)cc1`, the MIC in the experiment on Escherichia coli [1] and with Pseudomonas aeruginosa [2] was 1.56 µg/mL (≈ 3.29 µM) in each case.

On to `O=C(Nc1ccc(F)cc1)OCc1cn(Cc2ccc(Br)cc2)nn1`, for which the minimum inhibitory concentration (MIC) (with Bacillus subtilis; in [9]; with Pseudomonas aeruginosa [10]; in the experiment with Escherichia coli [11]) was 3.12 µg/mL (≈ 7.7 µM) each time.

As for `NC(=O)N/N=C/c1ccccc1OCc1cn(-c2ccc(F)cc2)nn1`, the MIC (in the experiment with Staphylococcus aureus [8]; in the experiment on Bacillus subtilis; in [9]; in the experiment on Pseudomonas aeruginosa [10]; with Escherichia coli [11]) was 25 µg/mL (≈ 70.6 µM) throughout.

Turning to `NC(=O)N/N=C/c1ccccc1OCc1cn(-c2ccc(Cl)cc2)nn1`, the minimum inhibitory concentration (MIC) (with Staphylococcus aureus [8]; in the experiment with Bacillus subtilis; in experiment [9]; in the experiment with Pseudomonas aeruginosa [10]; in the experiment on Escherichia coli [11]) was 25 µg/mL (≈ 67.4 µM) in each case.

`NC(=S)N/N=C/c1ccccc1OCc1cn(Cc2ccc(Br)cc2)nn1`: the MIC (with Staphylococcus aureus [8]; with Bacillus subtilis; in experiment [9]; with Pseudomonas aeruginosa [10]; with Escherichia coli [11]) was 6.25 µg/mL (≈ 14 µM) each time.

For the compound `O=C(Cn1cc(CN2CCN(c3cc4c(cc3F)c(=O)c(C(=O)O)cn4C3CC3)CC2)nn1)N[C@@H](Cc1cc(=O)[nH]c2ccccc12)C(=O)O`, the MIC in the experiment on Klebsiella pneumoniae, in the experiment on Staphylococcus aureus [3], in the experiment on Pseudomonas aeruginosa [4], with Acinetobacter baumannii and in the experiment on Escherichia coli [5] was 0.25 µg/mL (≈ 0.365 µM) each time.

Consider `O=C(O)c1cn(C2CC2)c2cc(N3CCN(Cc4cn(CC(=O)N5CCC[C@H]5C(=O)O)nn4)CC3)c(F)cc2c1=O`, for which the MIC in the experiment on Klebsiella pneumoniae, with Staphylococcus aureus [3], in the experiment on Pseudomonas aeruginosa [4], in the experiment with Acinetobacter baumannii and in the experiment with Escherichia coli [5] was 0.25 µg/mL (≈ 0.44 µM) in each case.

Consider `NC(=S)N/N=C/c1cccc(OCc2cn(Cc3ccc(Br)cc3)nn2)c1`, for which the MIC (with Staphylococcus aureus [8]; in the experiment on Bacillus subtilis; in experiment [9]; with Pseudomonas aeruginosa [10]; with Escherichia coli [11]) was 6.25 µg/mL (≈ 14 µM) in each case.

As to `O=C(Cn1cc(CN2CCN(c3cc4c(cc3F)c(=O)c(C(=O)O)cn4C3CC3)CC2)nn1)N[C@@H](Cc1ccccn1)C(=O)O`, the MIC in the experiment with Klebsiella pneumoniae, with Staphylococcus aureus [3], in the experiment on Pseudomonas aeruginosa [4], in the experiment with Acinetobacter baumannii and in the experiment with Escherichia coli [5] was 0.25 µg/mL (≈ 0.404 µM) in each case.

For the compound `COC(=O)[C@H](C)NC(=O)c1cc(=O)n(Cc2cn(C3O[C@H]4OC(C)(C)O[C@H]4[C@@H]4OC(C)(C)OC[C@@H]34)nn2)c2ccccc12` (stereo partly drawn), the minimal inhibitory concentration (MIC) in the experiment with Escherichia coli [1] was found to be 9.75 µg/mL (≈ 16.3 µM).

As to `O=C(Cn1cc(CN2CCN(c3cc4c(cc3F)c(=O)c(C(=O)O)cn4C3CC3)CC2)nn1)N[C@@H](Cc1ccccc1C(F)(F)F)C(=O)O`, the MIC in the experiment on Klebsiella pneumoniae, with Staphylococcus aureus [3], in the experiment on Pseudomonas aeruginosa [4], in the experiment on Acinetobacter baumannii and in the experiment with Escherichia coli [5] was 0.25 µg/mL (≈ 0.365 µM) in each case.

For the compound `C=CCOc1ccc(C[C@H](NC(=O)Cn2cc(CN3CCN(c4cc5c(cc4F)c(=O)c(C(=O)O)cn5C4CC4)CC3)nn2)C(=O)O)cc1`, the minimum inhibitory concentration (MIC) in the experiment on Klebsiella pneumoniae, in the experiment on Staphylococcus aureus [3], in the experiment with Pseudomonas aeruginosa [4], with Acinetobacter baumannii and in the experiment on Escherichia coli [5] was 0.25 µg/mL (≈ 0.371 µM) throughout.

For `NC(=O)N/N=C/c1ccccc1OCc1cn(-c2ccccc2)nn1`, the MIC (with Staphylococcus aureus [8]; in the experiment with Bacillus subtilis; in [9]; with Pseudomonas aeruginosa [10]; in the experiment on Escherichia coli [11]) was 25 µg/mL (≈ 74.3 µM) each time.

Take `O=C(Cn1cc(CN2CCN(c3cc4c(cc3F)c(=O)c(C(=O)O)cn4C3CC3)CC2)nn1)N[C@@H](CSc1ccccc1)C(=O)O`: the minimum inhibitory concentration (MIC) in the experiment with Klebsiella pneumoniae, in the experiment with Staphylococcus aureus [3], with Pseudomonas aeruginosa [4], in the experiment with Acinetobacter baumannii and in the experiment on Escherichia coli [5] was 0.25 µg/mL (≈ 0.385 µM) throughout.

The values are drawn from ChEMBL document CHEMBL5344406, “1,2,3-Triazole-containing hybrids with potential antibacterial activity against ESKAPE pathogens” (2022).
